From PubChem BioAssay (NCI)
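Each compound was tested at five concentrations against cells in 96-well plates for 48 hours. GI50 = concentration required for 50% inhibition of growth. TGI marks complete inhibition of growth.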

Tests used:
Test in all cases: NCI-60 cell line screen, 48 h
M14 melanoma = system: M14 melanoma
SK-MEL-28 melanoma = system: SK-MEL-28 melanoma
SF-295 CNS = system: SF-295 CNS
UO-31 renal = system: UO-31 renal
OVCAR-5 ovarian = system: OVCAR-5 ovarian
SNB-75 CNS = system: SNB-75 CNS
NCI/ADR-RES ovarian = system: NCI/ADR-RES ovarian
MDA-MB-468 breast = system: MDA-MB-468 breast
PC-3 prostate = system: PC-3 prostate
HL-60(TB) leukemia = system: HL-60(TB) leukemia
OVCAR-3 ovarian = system: OVCAR-3 ovarian
CCRF-CEM leukemia = system: CCRF-CEM leukemia
SK-MEL-2 melanoma = system: SK-MEL-2 melanoma
HT29 colon = system: HT29 colon
SNB-19 CNS = system: SNB-19 CNS
SN12C renal = system: SN12C renal
BT-549 breast = system: BT-549 breast
MALME-3M melanoma = system: MALME-3M melanoma
HCT-15 colon = system: HCT-15 colon
HS 578T breast = system: HS 578T breast
RXF 393 renal = system: RXF 393 renal
DU-145 prostate = system: DU-145 prostate
T-47D breast = system: T-47D breast
K-562 leukemia = system: K-562 leukemia
RPMI-8226 leukemia = system: RPMI-8226 leukemia
A549 NSCLC = system: A549 NSCLC
HCC-2998 colon = system: HCC-2998 colon
ACHN renal = system: ACHN renal
HOP-62 NSCLC = system: HOP-62 NSCLC
SF-268 CNS = system: SF-268 CNS
U251 CNS = system: U251 CNS
NCI-H23 lung = system: NCI-H23 lung
KM12 colon = system: KM12 colon
UACC-62 melanoma = system: UACC-62 melanoma
SK-OV-3 ovarian = system: SK-OV-3 ovarian
SF-539 CNS = system: SF-539 CNS
MCF7 breast = system: MCF7 breast
NCI-H522 lung = system: NCI-H522 lung
NCI-H226 lung = system: NCI-H226 lung
IGROV1 ovarian = system: IGROV1 ovarian
COLO 205 colon = system: COLO 205 colon
MDA-MB-435 = system: MDA-MB-435
HCT-116 colon = system: HCT-116 colon
SR leukemia = system: SR leukemia
UACC-257 melanoma = system: UACC-257 melanoma
LOX IMVI melanoma = system: LOX IMVI melanoma
SK-MEL-5 melanoma = system: SK-MEL-5 melanoma
MDA-MB-231 breast = system: MDA-MB-231 breast
CAKI-1 renal = system: CAKI-1 renal
NCI-H460 lung = system: NCI-H460 lung
TK-10 renal = system: TK-10 renal
A498 renal = system: A498 renal
786-0 renal = system: 786-0 renal
EKVX NSCLC = system: EKVX NSCLC
HOP-92 NSCLC = system: HOP-92 NSCLC
MOLT-4 leukemia = system: MOLT-4 leukemia
OVCAR-4 ovarian = system: OVCAR-4 ovarian
SW-620 colon = system: SW-620 colon
OVCAR-8 ovarian = system: OVCAR-8 ovarian

O=C(N=Nc1c(O)[nH]c2ccc(Br)cc12)c1ccc2nc(-c3ccc(Cl)cc3)[nH]c2c1 was tested, and the GI50 (M14 melanoma) was greater than 38 µM, the TGI (M14 melanoma) was greater than 38 µM and the GI50 (SK-MEL-28 melanoma) was greater than 38 µM. It also gave a TGI (SK-MEL-28 melanoma) greater than 38 µM, a GI50 (SF-295 CNS) greater than 38 µM and a TGI (SF-295 CNS) greater than 38 µM. For the same compound, the GI50 (UO-31 renal) was greater than 38 µM, the TGI (UO-31 renal) was greater than 38 µM and the GI50 (OVCAR-5 ovarian) was greater than 38 µM. It also gave a TGI (OVCAR-5 ovarian) greater than 38 µM, a GI50 (SNB-75 CNS) of 8.44 µM and a TGI (SNB-75 CNS) greater than 38 µM. For the same compound, the GI50 (NCI/ADR-RES ovarian) was greater than 38 µM, the TGI (NCI/ADR-RES ovarian) was greater than 38 µM and the GI50 (MDA-MB-468 breast) was 8.03 µM. For the same compound, the TGI (MDA-MB-468 breast) was 37.9 µM, the GI50 (PC-3 prostate) was greater than 38 µM and the TGI (PC-3 prostate) was greater than 38 µM. For the same compound, the GI50 (HL-60(TB) leukemia) was greater than 38 µM, the TGI (HL-60(TB) leukemia) was greater than 38 µM and the GI50 (OVCAR-3 ovarian) was greater than 38 µM. For the same compound, the TGI (OVCAR-3 ovarian) was greater than 38 µM, the GI50 (CCRF-CEM leukemia) was 8.77 µM and the TGI (CCRF-CEM leukemia) was greater than 38 µM. The GI50 (SK-MEL-2 melanoma) was greater than 38 µM, the TGI (SK-MEL-2 melanoma) was greater than 38 µM and the GI50 (HT29 colon) was 15.2 µM. For the same compound, the TGI (HT29 colon) was greater than 38 µM, the GI50 (SNB-19 CNS) was 17.1 µM and the TGI (SNB-19 CNS) was greater than 38 µM. The GI50 (SN12C renal) was greater than 38 µM, the TGI (SN12C renal) was greater than 38 µM and the GI50 (BT-549 breast) was greater than 38 µM. It also gave a TGI (BT-549 breast) greater than 38 µM, a GI50 (MALME-3M melanoma) greater than 38 µM and a TGI (MALME-3M melanoma) greater than 38 µM. It also gave a GI50 (HCT-15 colon) greater than 38 µM, a TGI (HCT-15 colon) greater than 38 µM and a GI50 (HS 578T breast) greater than 38 µM. The TGI (HS 578T breast) was greater than 38 µM, the GI50 (RXF 393 renal) was greater than 38 µM and the TGI (RXF 393 renal) was greater than 38 µM. For the same compound, the GI50 (DU-145 prostate) was 29.6 µM, the TGI (DU-145 prostate) was greater than 38 µM and the GI50 (T-47D breast) was 11.8 µM. The TGI (T-47D breast) was greater than 38 µM, the GI50 (K-562 leukemia) was 16.8 µM and the TGI (K-562 leukemia) was greater than 38 µM. For the same compound, the GI50 (RPMI-8226 leukemia) was greater than 38 µM, the TGI (RPMI-8226 leukemia) was greater than 38 µM and the GI50 (A549 NSCLC) was greater than 38 µM. It also gave a TGI (A549 NSCLC) greater than 38 µM, a GI50 (HCC-2998 colon) of 32.6 µM and a TGI (HCC-2998 colon) greater than 38 µM. For the same compound, the GI50 (ACHN renal) was greater than 38 µM, the TGI (ACHN renal) was greater than 38 µM and the GI50 (HOP-62 NSCLC) was greater than 38 µM. For the same compound, the TGI (HOP-62 NSCLC) was greater than 38 µM, the GI50 (SF-268 CNS) was 10.8 µM and the TGI (SF-268 CNS) was greater than 38 µM. It also gave a GI50 (U251 CNS) of 19.9 µM, a TGI (U251 CNS) greater than 38 µM and a GI50 (NCI-H23 lung) of 34 µM. The TGI (NCI-H23 lung) was greater than 38 µM, the GI50 (KM12 colon) was greater than 38 µM and the TGI (KM12 colon) was greater than 38 µM. For the same compound, the GI50 (UACC-62 melanoma) was greater than 38 µM, the TGI (UACC-62 melanoma) was greater than 38 µM and the GI50 (SK-OV-3 ovarian) was greater than 38 µM. The TGI (SK-OV-3 ovarian) was greater than 38 µM, the GI50 (SF-539 CNS) was greater than 38 µM and the TGI (SF-539 CNS) was greater than 38 µM. For the same compound, the GI50 (MCF7 breast) was 8.14 µM, the TGI (MCF7 breast) was greater than 38 µM and the GI50 (NCI-H522 lung) was greater than 38 µM. For the same compound, the TGI (NCI-H522 lung) was greater than 38 µM, the GI50 (NCI-H226 lung) was greater than 38 µM and the TGI (NCI-H226 lung) was greater than 38 µM. For the same compound, the GI50 (IGROV1 ovarian) was greater than 38 µM, the TGI (IGROV1 ovarian) was greater than 38 µM and the GI50 (COLO 205 colon) was 26.2 µM. It also gave a TGI (COLO 205 colon) greater than 38 µM, a GI50 (MDA-MB-435) of 29.6 µM and a TGI (MDA-MB-435) greater than 38 µM. It also gave a GI50 (HCT-116 colon) of 15.2 µM, a TGI (HCT-116 colon) greater than 38 µM and a GI50 (SR leukemia) greater than 38 µM. The TGI (SR leukemia) was greater than 38 µM, the GI50 (UACC-257 melanoma) was greater than 38 µM and the TGI (UACC-257 melanoma) was greater than 38 µM. For the same compound, the GI50 (LOX IMVI melanoma) was 11.3 µM, the TGI (LOX IMVI melanoma) was greater than 38 µM and the GI50 (SK-MEL-5 melanoma) was greater than 38 µM. For the same compound, the TGI (SK-MEL-5 melanoma) was greater than 38 µM, the GI50 (MDA-MB-231 breast) was greater than 38 µM and the TGI (MDA-MB-231 breast) was greater than 38 µM. The GI50 (CAKI-1 renal) was greater than 38 µM, the TGI (CAKI-1 renal) was greater than 38 µM and the GI50 (NCI-H460 lung) was 21.7 µM. The TGI (NCI-H460 lung) was greater than 38 µM, the GI50 (TK-10 renal) was greater than 38 µM and the TGI (TK-10 renal) was greater than 38 µM. It also gave a GI50 (A498 renal) greater than 38 µM, a TGI (A498 renal) greater than 38 µM and a GI50 (786-0 renal) of 29.6 µM. For the same compound, the TGI (786-0 renal) was greater than 38 µM, the GI50 (EKVX NSCLC) was greater than 38 µM and the TGI (EKVX NSCLC) was greater than 38 µM. It also gave a GI50 (HOP-92 NSCLC) greater than 38 µM, a TGI (HOP-92 NSCLC) greater than 38 µM and a GI50 (MOLT-4 leukemia) of 11.1 µM. It also gave a TGI (MOLT-4 leukemia) greater than 38 µM, a GI50 (OVCAR-4 ovarian) of 12 µM and a TGI (OVCAR-4 ovarian) greater than 38 µM. It also gave a GI50 (SW-620 colon) of 14.5 µM, a TGI (SW-620 colon) greater than 38 µM and a GI50 (OVCAR-8 ovarian) of 29.7 µM. It also gave a TGI (OVCAR-8 ovarian) greater than 38 µM.
